Reference: patent US8362012B2, “Benzoxazine benzimidazole derivative, a pharmaceutical composition comprising the same, and a use thereof” (Daewoong Pharmaceutical Co., Ltd., priority 2008, dated 2013)

Columns and labels:
ICR male mice = assay: Phenyl-p-quinone (PBQ)-induced writhing experiment using mice; assay type: in vivo; conditions: orally administered, PBQ (0.02%) intraperitoneally after 1 hour, writhing counted for 10 min
[1] = biological target: T1, human vanilloid-1 (hVR-1) in hVR-1-HEK293 cell line (Homo sapiens, UniProt Q8NER1); assay: Inhibitory effect on calcium influx via a vanilloid receptor (capsaicin-stimulated, Fluo-3/AM); assay type: cell-based; conditions: hVR-1-HEK293 cells, 1 μM of capsaicin, compounds 0.015˜2000 nM; read-out: I.A. (inhibitory activity), IC50 on intracellular calcium influx
T1 construct: expressed in transfected cells; host or cells: HEK293 Tet-on strain, doxycycline-induced
T1 sequence (Q8NER1 whole entry): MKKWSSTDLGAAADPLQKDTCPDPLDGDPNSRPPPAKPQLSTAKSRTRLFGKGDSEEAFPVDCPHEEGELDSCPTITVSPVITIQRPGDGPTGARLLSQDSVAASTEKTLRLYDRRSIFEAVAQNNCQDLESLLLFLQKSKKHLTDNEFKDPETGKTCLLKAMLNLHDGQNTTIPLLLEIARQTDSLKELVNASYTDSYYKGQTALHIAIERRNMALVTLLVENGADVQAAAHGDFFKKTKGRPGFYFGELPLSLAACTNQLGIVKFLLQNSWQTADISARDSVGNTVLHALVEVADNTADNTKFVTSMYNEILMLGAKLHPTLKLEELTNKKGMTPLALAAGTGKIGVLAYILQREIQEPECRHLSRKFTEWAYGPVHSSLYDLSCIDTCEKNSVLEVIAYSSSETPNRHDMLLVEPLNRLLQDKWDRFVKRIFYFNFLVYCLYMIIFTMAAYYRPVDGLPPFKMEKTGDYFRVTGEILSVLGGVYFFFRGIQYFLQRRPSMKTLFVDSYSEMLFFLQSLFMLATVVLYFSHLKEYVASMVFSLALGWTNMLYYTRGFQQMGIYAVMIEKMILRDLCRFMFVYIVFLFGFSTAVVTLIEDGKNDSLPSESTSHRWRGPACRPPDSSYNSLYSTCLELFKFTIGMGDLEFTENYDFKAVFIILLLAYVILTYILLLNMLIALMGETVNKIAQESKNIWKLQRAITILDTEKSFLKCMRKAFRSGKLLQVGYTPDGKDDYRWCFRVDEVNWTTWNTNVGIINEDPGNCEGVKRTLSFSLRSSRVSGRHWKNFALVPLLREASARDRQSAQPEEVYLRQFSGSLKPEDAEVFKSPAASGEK
Summary of the method: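 Doxycycline-induced (1 μg/mL, 2 days) hVR-1-HEK293 cells loaded with Fluo-3/AM for 90 min at 37° C, then stimulated with 1 μM capsaicin. Calcium influx expressed as background-corrected fluorescence relative to positive control, analysed by Hill equation and graded by activity criteria.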

| Structure (SMILES) | I.A. (inhibitory activity), % inhibition rate of writhing (ICR male mice) | IC50 [1] |
| --- | --- | --- |
| COC[C@H]1COc2c(-c3nc4ccc(C)c(C)c4[nH]3)cccc2N1c1ccc(C)cn1 [Example 100, (S)-8-(6,7-dimethyl-1H-benzimidazol-2-yl)-3-methoxymethyl-4-(5-methyl-pyridin-2-yl)-3,4-dihydro-2H-benzo[1,4]oxazine] | ++ (20˜50%) | 20 to 100 nM |
| COC[C@H]1COc2c(-c3nc4ccc(C#N)cc4[nH]3)cccc2N1c1ccc(C)cn1 [Example 101, 2-[(S)-3-methoxymethyl-4-(5-methyl-pyridin-2-yl)-3,4-dihydro-2H-benzo[1,4]oxazin-8-yl]-3H-benzimidazol-5-carbonitrile] | +++ (51-80%) | 20 to 100 nM |
| COC[C@H]1COc2c(-c3nc4cc(F)c(F)cc4[nH]3)cccc2N1c1ccc(C)cn1 [Example 102, (S)-8-(5,6-difluoro-1H-benzimidazol-2-yl)-3-methoxymethyl-4-(5-methyl-pyridin-2-yl)-3,4-dihydro-2H-benzo[1,4]oxazine] | +++ (51-80%) | < 20 nM |
| COC[C@H]1COc2c(-c3nc4cc(Cl)c(F)cc4[nH]3)cccc2N1c1ccc(C)cn1 [Example 103, (S)-8-(5-chloro-6-fluoro-1H-benzimidazol-2-yl)-3-methoxymethyl-4-(5-methyl-pyridin-2-yl)-3,4-dihydro-2H-benzo[1,4]oxazine] | +++ (51-80%) | < 20 nM |
| COC[C@H]1COc2c(-c3nc4c(C)cc(Br)cc4[nH]3)cccc2N1c1ccc(C)cn1 [Example 104, (S)-8-(6-bromo-4-methyl-1H-benzimidazol-2-yl)-3-methoxymethyl-4-(5-methyl-pyridin-2-yl)-3,4-dihydro-2H-benzo[1,4]oxazine] | +++ (51-80%) | < 20 nM |
